The values below come from ChEMBL document CHEMBL5338753, “Stapled Peptides as Direct Inhibitors of Nrf2-sMAF Transcription Factors” (J Med Chem, 2023).

pKd: −log10 of the molar value. Calls of active or inactive are those of the source. No cut-off for these calls is given here. Positions of bridges follow the written chain, without caps; N, C: chain ends. Non-standard residues stand in square brackets, D forms with d. Residues, ends and D or L forms follow the SMILES beside them. ξ: configuration not given here. *: point of attachment. Biotin = O=C1N[C@H]2[C@H](CS[C@H]2CCCCC(=O)*)N1; R5 = C=CCCC[C@@](C)(N)C(=O)O; ξIle = CC[C@H](C)C(N)C(=O)O; Ahx = NCCCCCC(=O)O

The target in data set [1] is T1, Nuclear factor erythroid 2-related factor 2 (Homo sapiens) (UniProt Q16236).
T1 sequence (whole entry): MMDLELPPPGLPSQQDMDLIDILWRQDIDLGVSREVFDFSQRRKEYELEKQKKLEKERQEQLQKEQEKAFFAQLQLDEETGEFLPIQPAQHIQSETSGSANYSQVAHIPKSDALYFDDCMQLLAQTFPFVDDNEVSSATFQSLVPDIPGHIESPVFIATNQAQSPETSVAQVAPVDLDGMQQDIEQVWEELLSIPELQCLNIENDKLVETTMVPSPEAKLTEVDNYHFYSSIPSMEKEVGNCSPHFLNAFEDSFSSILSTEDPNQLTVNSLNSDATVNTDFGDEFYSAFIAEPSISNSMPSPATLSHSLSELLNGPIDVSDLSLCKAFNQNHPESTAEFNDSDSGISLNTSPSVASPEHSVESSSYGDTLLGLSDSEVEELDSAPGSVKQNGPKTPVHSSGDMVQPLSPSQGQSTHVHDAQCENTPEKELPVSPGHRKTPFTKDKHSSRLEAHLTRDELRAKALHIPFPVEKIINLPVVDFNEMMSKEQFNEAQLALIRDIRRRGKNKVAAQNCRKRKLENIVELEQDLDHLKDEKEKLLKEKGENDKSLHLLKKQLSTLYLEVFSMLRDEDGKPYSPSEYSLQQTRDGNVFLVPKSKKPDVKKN
Kind of data set: Inhibition of human Nrf2 in HEK-293T cells expressing ARE-firefly luciferase and TK-Renilla luciferase at 0 to 100 uM incubated for 16 hrs by Dual-Luciferase reporter based luminometer analysis. The format is cell-based. To be noted: dose 0-100 µM. In general terms: Reporter assays use an easily measured gene product as a stand-in for the process of interest.

In data set [2] the target is T1, Nuclear factor erythroid 2-related factor 2 (Homo sapiens). Kind of data set: Inhibition of human Nrf2 in HEK-293T cells expressing NQO1-ARE-firefly luciferase and TK-Renilla luciferase at 50 uM incubated for 16 hrs by Dual-Luciferase reporter based luminometer analysis. The format is cell-based.
Data set [3] can be described thus: Stability of compound assessed as proteinase K (unknown origin) mediated compound degradation at 55 uM measured upto 24 hrs by LC/MS analysis. The class given is ADME. Particulars: human.
A short description of data set [4]: Stability of compound assessed as proteinase K (unknown origin) mediated compound degradation at 55 uM measured after 40 mins by LC/MS analysis. The class given is ADME. To be noted: human.
The target of data set [5] is T2, Transcription factor MafG (Homo sapiens, UniProt O15525). Kind of data set: Binding affinity to human His-tagged MafG at 1 uM incubated for 10 mins with 188 to 3000 nM protein by SPR analysis. On the technique in general: In SPR one partner is held on a chip, and binding of the other changes the refractive index at the surface.
Data set [6] concerns the target T2, Transcription factor MafG. Kind of data set: Binding affinity to human His-tagged MafG expressed in Escherichia coli Rosetta (DE3) by immunoprecipitation assay.
The target in data set [7] is T2, Transcription factor MafG. Kind of data set: Binding affinity to human His-tagged MafG expressed in Escherichia coli Rosetta (DE3) incubated in presence of unlabeled peptide by immunoprecipitation assay.
For data set [8], the target named is T2, Transcription factor MafG. Kind of data set: Binding affinity to human His-tagged MafG assessed as dissociation constant incubated for 10 mins by SPR analysis.
The target of data set [9] is Albumin (Bos taurus, UniProt P02769). Kind of data set: Binding affinity to bovine serum albumin at 1 uM by SPR analysis. To be noted: cattle.
Albumin, sequence (P02769 whole entry): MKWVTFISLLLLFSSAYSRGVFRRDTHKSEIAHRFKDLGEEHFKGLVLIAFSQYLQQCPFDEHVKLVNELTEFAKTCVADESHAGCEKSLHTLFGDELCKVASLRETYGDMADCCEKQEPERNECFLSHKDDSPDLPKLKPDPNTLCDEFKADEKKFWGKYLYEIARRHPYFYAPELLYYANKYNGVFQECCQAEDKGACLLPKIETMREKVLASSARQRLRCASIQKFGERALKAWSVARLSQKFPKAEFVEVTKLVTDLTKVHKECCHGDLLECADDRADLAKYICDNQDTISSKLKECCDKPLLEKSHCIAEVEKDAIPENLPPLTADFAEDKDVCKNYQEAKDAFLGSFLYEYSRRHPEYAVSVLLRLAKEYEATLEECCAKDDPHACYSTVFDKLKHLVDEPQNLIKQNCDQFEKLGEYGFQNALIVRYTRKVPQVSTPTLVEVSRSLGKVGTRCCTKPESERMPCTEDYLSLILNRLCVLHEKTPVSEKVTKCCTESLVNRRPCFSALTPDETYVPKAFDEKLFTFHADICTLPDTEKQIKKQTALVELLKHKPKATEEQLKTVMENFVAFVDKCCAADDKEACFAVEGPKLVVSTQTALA

T2 sequence (O15525 whole entry): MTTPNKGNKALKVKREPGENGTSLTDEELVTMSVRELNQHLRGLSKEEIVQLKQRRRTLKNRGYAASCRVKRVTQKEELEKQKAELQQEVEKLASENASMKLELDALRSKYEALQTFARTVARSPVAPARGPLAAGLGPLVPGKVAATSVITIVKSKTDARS

With `CC(=O)N[C@@H](C)C(=O)N[C@H](C(=O)N[C@@H](CCC(=O)O)C(=O)N[C@@H](C)C(=O)N[C@@H](CCC(=O)O)C(=O)N[C@]1(C)CCC/C=C\CCC[C@](C)(C(=O)N[C@@H](C)C(=O)N[C@@H](CCCCN)C(=O)N[C@@H](CC(=O)O)C(=O)N[C@@H](CCC(=O)O)C(=O)N[C@@H](C)C(=O)N[C@@H](CCC(=O)O)C(N)=O)NC(=O)[C@H](CC(=O)O)NC(=O)[C@H](C)NC(=O)[C@H](CC(=O)O)NC1=O)C(C)C` (Ac-AVEAE[R5]DAD[R5]AKDEAE-NH2; staple (Z) 6-10), the inhibition entry in data set [1] was “inactive”.

Consider `CC(=O)N[C@@H](CC(=O)O)C(=O)N[C@@H](CCC(=O)O)C(=O)N[C@@H](CCCCN)C(=O)N[C@@H](CCC(=O)O)C(=O)N[C@@H](CCCCN)C(=O)N[C@@H](CC(C)C)C(=O)N[C@]1(C)CCC/C=C\CCC[C@](C)(C(=O)N[C@@H](CCC(=O)O)C(=O)N[C@@H](CC(N)=O)C(=O)N[C@@H](CC(=O)O)C(=O)N[C@@H](CCCCN)C(=O)N[C@@H](CO)C(N)=O)NC(=O)[C@H](CCCCN)NC(=O)[C@H](CCC(=O)O)NC(=O)[C@H](CCCCN)NC1=O` (Ac-DEKEKL[R5]KEK[R5]ENDKS-NH2; staple (Z) 7-11), for which the inhibition entry in data set [2] is “inactive”. Further, the Stability entry in data set [3] was “Stable”.

On to `CC(=O)N[C@@H](CC(=O)O)C(=O)N[C@@H](CC(C)C)C(=O)N[C@@H](CC(=O)O)C(=O)N[C@@H](Cc1c[nH]cn1)C(=O)N[C@@H](CC(C)C)C(=O)N[C@]1(C)CCC/C=C\CCC[C@](C)(C(=O)N[C@@H](CCCCN)C(=O)N[C@@H](CC(C)C)C(=O)N[C@@H](CC(C)C)C(=O)N[C@@H](CCCCN)C(=O)N[C@@H](CCC(=O)O)C(=O)N[C@@H](CCCCN)C(N)=O)NC(=O)[C@H](CCCCN)NC(=O)[C@H](CCC(=O)O)NC(=O)[C@H](CC(=O)O)NC1=O` (Ac-DLDHL[R5]DEK[R5]KLLKEK-NH2; staple (Z) 6-10), for which, in [4], the Stability result is on record as “Unstable”. Moreover, the inhibition result in data set [2] is “inactive”.

Regarding `CC(C)C[C@H](NC(=O)[C@H](CCCCN)NC(=O)[C@H](CCC(=O)O)NC(=O)[C@H](CCCCN)NC(=O)[C@H](CCC(=O)O)NC(=O)[C@H](CC(=O)O)NC(=O)CCCCCNC(=O)CCCC[C@@H]1SC[C@@H]2NC(=O)N[C@@H]21)C(=O)N[C@]1(C)CCC/C=C\CCC[C@](C)(C(=O)N[C@@H](CCC(=O)O)C(=O)N[C@@H](CC(N)=O)C(=O)N[C@@H](CC(=O)O)C(=O)N[C@@H](CCCCN)C(=O)N[C@@H](CO)C(N)=O)NC(=O)[C@H](CCCCN)NC(=O)[C@H](CCC(=O)O)NC(=O)[C@H](CCCCN)NC1=O` ({Biotin-Ahx}-DEKEKL[R5]KEK[R5]ENDKS-NH2; staple (Z) 7-11), the outcome in data set [5] and in data set [6] was inactive.

As to `CC(C)C[C@H](NC(=O)[C@H](CC(=O)O)NC(=O)CCCCCNC(=O)CCCC[C@@H]1SC[C@@H]2NC(=O)N[C@@H]21)C(=O)N[C@@H](CC(=O)O)C(=O)N[C@@H](Cc1c[nH]cn1)C(=O)N[C@@H](CC(C)C)C(=O)N[C@]1(C)CCC/C=C\CCC[C@](C)(C(=O)N[C@@H](CCCCN)C(=O)N[C@@H](CC(C)C)C(=O)N[C@@H](CC(C)C)C(=O)N[C@@H](CCCCN)C(=O)N[C@@H](CCC(=O)O)C(=O)N[C@@H](CCCCN)C(N)=O)NC(=O)[C@H](CCCCN)NC(=O)[C@H](CCC(=O)O)NC(=O)[C@H](CC(=O)O)NC1=O` ({Biotin-Ahx}-DLDHL[R5]DEK[R5]KLLKEK-NH2; staple (Z) 6-10), the result in [6] was inactive.

For orientation: pKd means the Kd on a negative log10 scale, so that one unit is a factor of ten. On to `CC[C@H](C)C(NC(=O)CCCCCNC(=O)CCCC[C@@H]1SC[C@@H]2NC(=O)N[C@@H]21)C(=O)N[C@H](C(=O)N[C@@H](CCC(=O)O)C(=O)N[C@@H](CC(C)C)C(=O)N[C@@H](CCC(=O)O)C(=O)N[C@]1(C)CCC/C=C\CCC[C@](C)(C(=O)N[C@@H](CC(C)C)C(=O)N[C@@H](CCCCN)C(=O)N[C@@H](CC(=O)O)C(=O)N[C@@H](CCC(=O)O)C(=O)N[C@@H](CCCCN)C(=O)N[C@@H](CCC(=O)O)C(N)=O)NC(=O)[C@H](CC(=O)O)NC(=O)[C@H](CC(C)C)NC(=O)[C@H](CC(=O)O)NC1=O)C(C)C` (stereo partly specified) ({Biotin-Ahx}-[ξIle]VELE[R5]DLD[R5]LKDEKE-NH2; staple (Z) 6-10), for which the result in [7] and in data set [6] was Active. The pKd in data set [8] is 6.47. For the same compound, in data set [9], the Activity entry is on record as “Not Active”.

In the case of Ac-DEKEKLLKEKGENDKS-NH2, the inhibition entry in [2] was “inactive”.

Turning to Ac-DLDHLKDEKEKLLKEK-NH2, the inhibition entry in [2] is “inactive”.

Regarding Ac-IVELEQDLDHLKDEKE-NH2, the inhibition entry in [2] is “inactive”. Moreover, in data set [3], the Stability entry is on record as “Unstable”.
